ChEMBL document CHEMBL1201862, “PubChem BioAssay data set” (2004)
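Compound exposure: 48 hours, 5 concentrations, 96-well plates. GI50 = concentration required for 50% inhibition of growth.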 Active and inactive are the calls of the source. No stated cut-off is given here; in the data, active = GI50 up to about 1.1 µM and inactive = higher.

What was measured:
Assay in all cases: DTP human tumour cell line panel, 48 h
U-251 = system: U-251
SNB-19 = system: SNB-19
COLO 205 = system: COLO 205
UACC-257 = system: UACC-257
HCT-15 = system: HCT-15
SK-MEL-5 = system: SK-MEL-5
NCI-H226 = system: NCI-H226
DMS-273 = system: DMS-273
UO-31 = system: UO-31
786-0 = system: 786-0
SW-620 = system: SW-620
SN12C = system: SN12C
MOLT-4 = system: MOLT-4
SK-OV-3 = system: SK-OV-3
TK-10 = system: TK-10
SNB-75 = system: SNB-75
IGROV-1 = system: IGROV-1
A498 = system: A498
Malme-3M = system: Malme-3M
KM12 = system: KM12
OVCAR-4 = system: OVCAR-4
K562 = system: K562
SK-MEL-28 = system: SK-MEL-28
LXFL 529 = system: LXFL 529
LOX IMVI = system: LOX IMVI
HOP-18 = system: HOP-18
EKVX = system: EKVX
OVCAR-8 = system: OVCAR-8
HOP-92 = system: HOP-92
KM-20L2 = system: KM-20L2
OVCAR-3 = system: OVCAR-3
HCC 2998 = system: HCC 2998
SF-268 = system: SF-268
HCT-116 = system: HCT-116
NCI-H23 = system: NCI-H23
CCRF-CEM = system: CCRF-CEM
SNB-78 = system: SNB-78
HT-29 = system: HT-29
DLD-1 = system: DLD-1
SF-295 = system: SF-295
NCI-H522 = system: NCI-H522
CAKI-1 = system: CAKI-1
M19-MEL = system: M19-MEL
M14 = system: M14
NCI-H460 = system: NCI-H460
ACHN = system: ACHN
OVCAR-5 = system: OVCAR-5
DMS-114 = system: DMS-114
A549 = system: A549
SF-539 = system: SF-539
SK-MEL-2 = system: SK-MEL-2
RXF 393 = system: RXF 393
UACC-62 = system: UACC-62
RPMI-8226 = system: RPMI-8226
HOP-62 = system: HOP-62
HL-60 = system: HL-60
SR = system: SR

N#CC1(Cc2ccccc2[N+](=O)[O-])c2ccccc2C2C(N1C(=O)c1ccccc1)C2(Cl)Cl (configuration not stated)
GI50 (U-251): > 100 µM (inactive)
GI50 (SNB-19): > 100 µM (inactive)
GI50 (COLO 205): > 100 µM (inactive)
GI50 (UACC-257): > 100 µM (inactive)
GI50 (HCT-15): > 100 µM
GI50 (SK-MEL-5): > 100 µM (inactive)
GI50 (NCI-H226): > 100 µM (inactive)
GI50 (DMS-273): 28.2 µM (inactive)
GI50 (UO-31): > 100 µM (inactive)
GI50 (786-0): > 100 µM (inactive)
GI50 (SW-620): > 100 µM (inactive)
GI50 (SN12C): > 100 µM (inactive)
GI50 (MOLT-4): > 100 µM (inactive)
GI50 (SK-OV-3): > 100 µM (inactive)
GI50 (TK-10): > 100 µM (inactive)
GI50 (SNB-75): 52.6 µM (inactive)
GI50 (IGROV-1): > 100 µM (inactive)
GI50 (A498): 78 µM (inactive)
GI50 (Malme-3M): > 100 µM (inactive)
GI50 (KM12): > 100 µM (inactive)
GI50 (OVCAR-4): 13.2 µM (inactive)
GI50 (K562): > 100 µM (inactive)
GI50 (SK-MEL-28): > 100 µM (inactive)
GI50 (LXFL 529): > 100 µM (inactive)
GI50 (LOX IMVI): > 100 µM (inactive)
GI50 (HOP-18): > 100 µM (inactive)
GI50 (EKVX): > 100 µM (inactive)
GI50 (OVCAR-8): > 100 µM (inactive)
GI50 (HOP-92): > 100 µM (inactive)
GI50 (KM-20L2): 7.19 µM (inactive)
GI50 (OVCAR-3): > 100 µM (inactive)
GI50 (HCC 2998): 3.76 µM (inactive)
GI50 (SF-268): > 100 µM (inactive)
GI50 (HCT-116): > 100 µM (inactive)
GI50 (NCI-H23): > 100 µM (inactive)
GI50 (CCRF-CEM): > 100 µM (inactive)
GI50 (SNB-78): 77.3 µM (inactive)
GI50 (HT-29): > 100 µM (inactive)
GI50 (DLD-1): 3.6 µM (inactive)
GI50 (SF-295): > 100 µM (inactive)
GI50 (NCI-H522): > 100 µM (inactive)
GI50 (CAKI-1): > 100 µM (inactive)
GI50 (M19-MEL): > 100 µM (inactive)
GI50 (M14): > 100 µM (inactive)
GI50 (NCI-H460): > 100 µM (inactive)
GI50 (ACHN): 13.2 µM (inactive)
GI50 (OVCAR-5): > 100 µM (inactive)
GI50 (DMS-114): > 100 µM (inactive)
GI50 (A549): > 100 µM (inactive)
GI50 (SF-539): > 100 µM (inactive)
GI50 (SK-MEL-2): > 100 µM (inactive)
GI50 (RXF 393): > 100 µM (inactive)
GI50 (UACC-62): > 100 µM (inactive)

c1ccc2c(c1)[nH]c1c2nc2ccccn21
GI50 (U-251): > 100 µM (inactive)
GI50 (SNB-19): > 100 µM (inactive)
GI50 (COLO 205): > 100 µM (inactive)
GI50 (UACC-257): > 100 µM (inactive)
GI50 (HCT-15): > 100 µM
GI50 (SK-MEL-5): > 100 µM (inactive)
GI50 (DMS-273): > 100 µM (inactive)
GI50 (UO-31): > 100 µM (inactive)
GI50 (786-0): > 100 µM (inactive)
GI50 (SW-620): > 100 µM (inactive)
GI50 (RPMI-8226): > 100 µM (inactive)
GI50 (MOLT-4): > 100 µM (inactive)
GI50 (SK-OV-3): > 100 µM (inactive)
GI50 (TK-10): 69 µM (inactive)
GI50 (IGROV-1): > 100 µM (inactive)
GI50 (A498): > 100 µM (inactive)
GI50 (KM12): > 100 µM (inactive)
GI50 (OVCAR-4): > 100 µM (inactive)
GI50 (K562): > 100 µM (inactive)
GI50 (SK-MEL-28): > 100 µM (inactive)
GI50 (LXFL 529): > 100 µM (inactive)
GI50 (HOP-18): > 100 µM (inactive)
GI50 (EKVX): > 100 µM (inactive)
GI50 (OVCAR-8): > 100 µM (inactive)
GI50 (HOP-92): > 100 µM (inactive)
GI50 (KM-20L2): > 100 µM (inactive)
GI50 (SF-268): > 100 µM (inactive)
GI50 (HCT-116): > 100 µM (inactive)
GI50 (NCI-H23): > 100 µM (inactive)
GI50 (SNB-78): > 100 µM (inactive)
GI50 (HT-29): > 100 µM (inactive)
GI50 (DLD-1): > 100 µM (inactive)
GI50 (CAKI-1): > 100 µM (inactive)
GI50 (M14): > 100 µM (inactive)
GI50 (NCI-H460): > 100 µM (inactive)
GI50 (ACHN): > 100 µM (inactive)
GI50 (OVCAR-5): > 100 µM (inactive)
GI50 (DMS-114): > 100 µM (inactive)
GI50 (A549): > 100 µM (inactive)
GI50 (UACC-62): > 100 µM (inactive)

NC(=O)C(c1ccccc1)N1CCOCC1 (configuration not stated)
GI50 (U-251): > 100 µM (inactive)
GI50 (COLO 205): > 100 µM (inactive)
GI50 (UACC-257): > 100 µM (inactive)
GI50 (HCT-15): > 100 µM
GI50 (SK-MEL-5): > 100 µM (inactive)
GI50 (NCI-H226): > 100 µM (inactive)
GI50 (DMS-273): > 100 µM (inactive)
GI50 (UO-31): > 100 µM (inactive)
GI50 (786-0): > 100 µM (inactive)
GI50 (SW-620): > 100 µM (inactive)
GI50 (SN12C): > 100 µM (inactive)
GI50 (RPMI-8226): > 100 µM (inactive)
GI50 (MOLT-4): > 100 µM (inactive)
GI50 (SK-OV-3): > 100 µM (inactive)
GI50 (TK-10): > 100 µM (inactive)
GI50 (SNB-75): > 100 µM (inactive)
GI50 (HOP-62): > 100 µM (inactive)
GI50 (IGROV-1): > 100 µM (inactive)
GI50 (A498): > 100 µM (inactive)
GI50 (Malme-3M): > 100 µM (inactive)
GI50 (KM12): > 100 µM (inactive)
GI50 (OVCAR-4): > 100 µM (inactive)
GI50 (K562): > 100 µM (inactive)
GI50 (SK-MEL-28): > 100 µM (inactive)
GI50 (HL-60): > 100 µM (inactive)
GI50 (LXFL 529): > 100 µM (inactive)
GI50 (LOX IMVI): > 100 µM (inactive)
GI50 (HOP-18): > 100 µM (inactive)
GI50 (OVCAR-8): > 100 µM (inactive)
GI50 (HOP-92): > 100 µM (inactive)
GI50 (KM-20L2): > 100 µM (inactive)
GI50 (OVCAR-3): > 100 µM (inactive)
GI50 (SF-268): > 100 µM (inactive)
GI50 (HCT-116): > 100 µM (inactive)
GI50 (NCI-H23): > 100 µM (inactive)
GI50 (CCRF-CEM): > 100 µM (inactive)
GI50 (SNB-78): > 100 µM (inactive)
GI50 (HT-29): > 100 µM (inactive)
GI50 (DLD-1): > 100 µM (inactive)
GI50 (SF-295): > 100 µM (inactive)
GI50 (NCI-H522): > 100 µM (inactive)
GI50 (CAKI-1): > 100 µM (inactive)
GI50 (SR): > 100 µM (inactive)
GI50 (M19-MEL): > 100 µM (inactive)
GI50 (M14): > 100 µM (inactive)
GI50 (NCI-H460): > 100 µM (inactive)
GI50 (ACHN): > 100 µM (inactive)
GI50 (OVCAR-5): > 100 µM (inactive)
GI50 (DMS-114): > 100 µM (inactive)
GI50 (A549): > 100 µM (inactive)
GI50 (SF-539): > 100 µM (inactive)
GI50 (SK-MEL-2): > 100 µM (inactive)
GI50 (RXF 393): > 100 µM (inactive)
GI50 (UACC-62): > 100 µM (inactive)
